Read-outs that look alike come from different tables or passages of the source.
What was measured:
PC-3 cells = tested on: PC-3 cells; parameters: key to Results (simvastatin alone): Positive: Simvastatin alone inhibited the progression of cancer; Negative: Simvastatin alone could not inhibit the progression of cancer; details: Prostate Cancer, i.p., cited from earlier work
Caki-1-staR cells = tested on: Caki-1-staR cells; parameters: method as in Supplement [13]; key: Positive: Simvastatin alone inhibited the progression of cancer; Negative: Simvastatin alone could not inhibit the progression of cancer; details: Renal Cancer, 6.7 mg/kg/day, i.p.; ref Supplement [13]; cited from earlier work
N2a cells [1] = test: MTT cell viability assay, N2a; format: cell-based, mouse; details: Mus musculus
Experimental: (§1) N2a, SH-SY5Y, SK-N-BE (2), 10A, HUVEC, HL7702 cells were plated in 96-well plates at 8,000 cells/well, respectively, in complete media in triplicate wells for each dose and cultured for 18 h. The neuroblastoma cell lines, N2a, SH-SY5Y, and SK-N-BE (2), and non-cancer cell lines, 10A, HUVEC, and HL7702, were treated with simvastatin and fluvastatin in a range of doses from 0 to 20 μM and with AA from 0 to 30 μM; N2a, SH-SY5Y SK-N-BE (2), were treated with rosuvastatin in a range of doses from 0 to 100 μM for 72 h. Statins dissolved in DMSO and AA dissolved in ethanol. After 72 h treatment, the medium was added 0.5 mg/ml MTT reagent and incubated at 37°C for 4 h. Subsequently, the supernatant was aspirated, and cells were lysed in 150 µl DMSO, then shaken 10 min at 37°C. The optical density (OD) was measured at 570 and 630 nm using a plate reader.

[2] = tested on: Panc-1 cells from the primary tumors; parameters: method as in Supplement [9]; key: Positive: Simvastatin alone inhibited the progression of cancer; Negative: Simvastatin alone could not inhibit the progression of cancer; details: Pancreatic Ductal Adenocarcinoma, 20.0 mg/kg/day, i.p.; ref Supplement [9]; cited from earlier work
KHOS or NP cells = tested on: KHOS or NP cells; parameters: method as in Supplement [24]; key: Positive: Simvastatin alone inhibited the progression of cancer; Negative: Simvastatin alone could not inhibit the progression of cancer; details: Osteosarcoma, 10.0 mg/kg, route unknown; ref Supplement [24]; cited from earlier work
HepG2 cells = tested on: HepG2 cells; parameters: method as in Supplement [7]; key: Positive: Simvastatin alone inhibited the progression of cancer; Negative: Simvastatin alone could not inhibit the progression of cancer; details: Hepatocellular Carcinoma, 40.0 mg/kg/day, i.p.; ref Supplement [7]; cited from earlier work
22RV1 cells = tested on: 22RV1 cells; parameters: key to Results (simvastatin alone): Positive: Simvastatin alone inhibited the progression of cancer; Negative: Simvastatin alone could not inhibit the progression of cancer; details: Prostate Cancer, 25.0 mg/kg/day, i.p.; ref Supplement [15]; cited from earlier work
HCT116 or HT29 cells = tested on: HCT116 or HT29 cells; parameters: method as in Supplement [11]; key: Positive: Simvastatin alone inhibited the progression of cancer; Negative: Simvastatin alone could not inhibit the progression of cancer; details: Colorectal Cancer, 50.0 mg/kg/day, oral; ref Supplement [11]; cited from earlier work
[3] = tested on: HCT116 p53 +/+ or p53 -/- cells; parameters: method as in Supplement [12]; key: Positive: Simvastatin alone inhibited the progression of cancer; Negative: Simvastatin alone could not inhibit the progression of cancer; details: Colorectal Cancer, 20.0 mg/kg/day, i.p.; ref Supplement [12]; cited from earlier work
10A cells = test: MTT cell viability assay, 10A; format: cell-based; details: Homo sapiens, normal cell line, 72 h
Experimental: Statins dissolved in DMSO and AA dissolved in ethanol. After 72 h treatment, the medium was added 0.5 mg/ml MTT reagent and incubated at 37°C for 4 h. Subsequently, the supernatant was aspirated, and cells were lysed in 150 µl DMSO, then shaken 10 min at 37°C. The optical density (OD) was measured at 570 and 630 nm using a plate reader.

SK-N-BE (2) cells = test: MTT cell viability assay, SK-N-BE (2); format: cell-based; details: Homo sapiens, SKNBE2, NB cell line, 72 h
Experimental: as §1

[4] = tested on: HLMC cells from the primary patients; parameters: method as in Supplement [4]; key: Positive: Simvastatin alone inhibited the progression of cancer; Negative: Simvastatin alone could not inhibit the progression of cancer; details: Lung Carcinoma, 50.0 mg/kg/day, oral; ref Supplement [4]; cited from earlier work
N2a cells [5] = test: Wound healing assay, N2a; format: cell-based, mouse; details: 1.5 μM simvastatin, 48 h
Experimental: N2a, SH-SY5Y, and SK-N-BE (2) cells were cultured in six-well plates (5 × 10^5cells/well) and incubated till they reached 90–100% confluence. The cells were then maintained in phenol red-free DMEM/DMEM-F12 with 2.5%FBS, in order to minimize the cell proliferation. A sterile 20 µl tip was used to create scratch wounds of the same width. The plates were then washed twice with phosphate-buffered saline (PBS) to remove the detached cells. Photos were taken at 0, 24, and 48 h, and the area covered by the cells enumerated the closure of the wounds. Each experiment was performed in triplicate.

## CCC(C)(C)C(=O)O[C@H]1C[C@@H](C)C=C2C=C[C@H](C)[C@H](CC[C@@H]3C[C@@H](O)CC(=O)O3)[C@H]21 [Simvastatin]
PC-3 cells; 2.0 mg/kg/day or 4.0 mg/kg/day, ref Supplement [18]
  Results (simvastatin alone): Positive
PC-3 cells; 2.1 mg/kg/day or 21.0 mg/kg/day, ref Supplement [19]
  Results (simvastatin alone): Positive
PC-3 cells; 4.0 mg/kg/day, ref Supplement [17]
  Results (simvastatin alone): Positive
Caki-1-staR cells
  Results (simvastatin alone): Negative
N2a cells [1]; N2a, NB cell line, MTT, 72 h
  IC50: 6.07 µM
N2a cells [1]; N2a cells, 1.5 μM simvastatin, read-out: inhibition rate
  inhibition at 1.5 µM: ~10%
[2]
  Results (simvastatin alone): Positive
KHOS or NP cells
  Results (simvastatin alone): Positive
HepG2 cells
  Results (simvastatin alone): Positive
22RV1 cells
  Results (simvastatin alone): Positive
HCT116 or HT29 cells
  Results (simvastatin alone): Positive
[3]
  Results (simvastatin alone): Positive
10A cells
  IC50: 26.7 µM
SK-N-BE (2) cells
  IC50: 10.5 µM
[4]
  Results (simvastatin alone): Positive
N2a cells [5]
  migration vs control group: significantly higher

— paper PMC8141582, “Synergistic Effect of Statins and Abiraterone Acetate on the Growth Inhibition of Neuroblastoma via Targeting Androgen Receptor” (Frontiers in Oncology, 2021)
